Entries after “also recorded” stand apart in the source; their conditions may differ.
Experiments:
[1] = system: PC3 cells; assay: Click-iT EdU proliferation of PC3 cells treated with CM from WPMY-1 cells; type: cell-based, human; details: Olaparib 10 μM + PEGPH20 2.5 μg/ml or CM incubation with Galunisertib 10 μM
Description: WPMY-1 cells were cultured in DMEN containing 10% FBS (basal conditions) or 10% charcoal stripped FBS (ADT conditions), then the cells were treated with vehicle (DMSO), Olaparib 10 μM, Olaparib 10 μM+PEGPH20 2.5 μg/ml for 96 hours, refreshing media and stimuli at 48 hours, conditioned media (CM) was generated by collecting supernatant on day 4. PC3 cells were seeded in a black-walled well (Thermo Fisher) and serum starved overnight. CM from WPMY-1 cells was added to PC3 for 24 h. PC3 were exposed to EdU incorporation for the last 2 hours. Proliferating cells were detected using Click-iT EdU Alexa fluor 488 (Thermo Fisher) following the manufacturer's instructions. Pictures were taken using EVOS M5000 Imaging System and EdU positive were measured using Fiji (Schindelin et al., 2012).

[2] = system: p62 (SQSTM1) in WPMY-1 cells; assay: p62/SQSTM1 expression in WPMY-1 stromal fibroblasts (immunoblot, qPCR); type: cell-based, human
From the text: To knock out PARP-1 in WPMY-1 cells, single-guide RNA sequences targeting PARP-1 exon2 were purchased from Synthego and transduced into WPMY-1 cells with recombinant Streptococcus pyogenes Cas9 protein (Truecut Cas9 Protein v2, Thermo), using the Neon Transfection System 1 (Invitrogen) following the manufacturer's protocol and single clones were expanded and screened by protein immunoblotting. To perform AP1-A binding site editing in the SQSTM promoter in WPMY-1 cells, single-guide RNA sequences targeting the human AP1-A binding site (Synthego) was transduced into cells with a Cas9 protein and a single-stranded donor oligonucleotide (ssODN, IDT) using Neon Electroporation System. Single clones were expanded and screened for AP1-A editing by Sanger sequencing. A point mutation to disrupt the API enhancer element in the p62 promoter was introduced by Site Directed Mutagenesis (Stratagene). Knockdown of MCT1, MCT4, FOS, PARP1, PARP2, CD38, ATG5, and SIRT1-7 genes in WPMY-1 cells were achieved by siRNA transfection using Lipofectamine RNAiMAX Transfection Reagent (Invitrogen). Transient overexpression was achieved by transfection using X-tremeGENE HP transfection reagent (Roche). Transfected cells were examined 48 hours after transfection. Establishing stably GFP or RFP expressing cells was achieved by lentivirus-mediated transduction. Lentivirus were produced in HEK293T cells using X-tremeGENE HP transfection reagent (Roche). Virus-containing supernatants were collected 48, 72 and 96 hours after transfection, filtered to eliminate cells, and supplemented with 8 μg/ml polybrene. Cells were infected with three rounds of viral supernatants and selected with puromycin (3 μg/ml). For autophagy or proteasome inhibition, WPMY-1 cells were treated for 12 hours with 100 nM bafilomycin Al or 12 hours with 20 μM of MG132, respectively, or vehicle (DMSO). […] For MCT1 inhibition, WPMY-1 cells were treated for 48 hours with 10 μM of AZD3965. For cJUN inhibition, WPMY-1 cells were treated for 48 hours with 10 μM of SP600125. For calpains and caspases inhibition, WPMY-1 cells were treated for 48 hours with 1-20 μM of Calpeptin (Tocris) or z-VAD-FMK (Tocris), respectively. For protein synthesis inhibition, WPMY-1 cells were treated with 50 μg/ml of cycloheximide (Sigma). Conditioned media (CM) was generated by collecting supernatant on day 3. CM was transferred to a 15 ml BD Falcon tube and centrifuged at 1300 rpm for 10 minutes. The supernatant was sterile filtered using a […] (Millex-GV) with a 10 ml syringe barrel. The samples were stored at […] for future experiments. Fractionation of the CM was achieved using Amicon Ultra centrifugal filters (3KUltracel, Millipore). The supernatant was centrifuged at 4000 rpm for 1 hour. The supernatant fraction that was >3 kDa remained above the filter and that which was <3 kDa passed through to the lower chamber. The >3-kDa fraction was resuspended in DMEM to the pre-filtration volume.

[3] = system: WPMY-1 cells; assay: qPCR of CAF / stromal activation markers in WPMY-1 cells; type: cell-based, human; details: co-treatment with Olaparib
From the text: To knock out PARP-1 in WPMY-1 cells, single-guide RNA sequences targeting PARP-1 exon2 were purchased from Synthego and transduced into WPMY-1 cells with recombinant Streptococcus pyogenes Cas9 protein (Truecut Cas9 Protein v2, Thermo), using the Neon Transfection System 1 (Invitrogen) following the manufacturer's protocol and single clones were expanded and screened by protein immunoblotting. To perform AP1-A binding site editing in the SQSTM promoter in WPMY-1 cells, single-guide RNA sequences targeting the human AP1-A binding site (Synthego) was transduced into cells with a Cas9 protein and a single-stranded donor oligonucleotide (ssODN, IDT) using Neon Electroporation System. Single clones were expanded and screened for AP1-A editing by Sanger sequencing. A point mutation to disrupt the API enhancer element in the p62 promoter was introduced by Site Directed Mutagenesis (Stratagene). Knockdown of MCT1, MCT4, FOS, PARP1, PARP2, CD38, ATG5, and SIRT1-7 genes in WPMY-1 cells were achieved by siRNA transfection using Lipofectamine RNAiMAX Transfection Reagent (Invitrogen). Transient overexpression was achieved by transfection using X-tremeGENE HP transfection reagent (Roche). Transfected cells were examined 48 hours after transfection. Establishing stably GFP or RFP expressing cells was achieved by lentivirus-mediated transduction. Lentivirus were produced in HEK293T cells using X-tremeGENE HP transfection reagent (Roche). Virus-containing supernatants were collected 48, 72 and 96 hours after transfection, filtered to eliminate cells, and supplemented with 8 μg/ml polybrene. Cells were infected with three rounds of viral supernatants and selected with puromycin (3 μg/ml). For autophagy or proteasome inhibition, WPMY-1 cells were treated for 12 hours with 100 nM bafilomycin Al or 12 hours with 20 μM of MG132, respectively, or vehicle (DMSO). For PARP1 inhibition, WPMY-1 cells were treated with PJ34 (2 days) or Olaparib (4 days) at the doses indicated in each experiment. For MCT1 inhibition, WPMY-1 cells were treated for 48 hours with 10 μM of AZD3965. For cJUN inhibition, WPMY-1 cells were treated for 48 hours with 10 μM of SP600125. For calpains and caspases inhibition, WPMY-1 cells were treated for 48 hours with 1-20 μM of Calpeptin (Tocris) or z-VAD-FMK (Tocris), respectively. For protein synthesis inhibition, WPMY-1 cells were treated with 50 μg/ml of cycloheximide (Sigma). Conditioned media (CM) was generated by collecting supernatant on day 3. CM was transferred to a 15 ml BD Falcon tube and centrifuged at 1300 rpm for 10 minutes. The supernatant was sterile filtered using a […] (Millex-GV) with a 10 ml syringe barrel. The samples were stored at […] for future experiments. Fractionation of the CM was achieved using Amicon Ultra centrifugal filters (3KUltracel, Millipore). The supernatant was centrifuged at 4000 rpm for 1 hour. The supernatant fraction that was >3 kDa remained above the filter and that which was <3 kDa passed through to the lower chamber. The >3-kDa fraction was resuspended in DMEM to the pre-filtration volume.
Total RNA from mouse tissues, cells and cultured organoids was extracted using the TRIZOL reagent (Invitrogen) and the RNeasy Mini Kit (QIAGEN), followed by DNase treatment. After quantification using a Nanodrop 1000 spectrophotometer (Thermo Scientific), RNA was either processed for RNA-seq or reverse-transcribed using random primers and MultiScribe Reverse Transcriptase (Applied Biosystems). Gene expression was analyzed by amplifying 20 ng of the complementary DNA using the CFX96 Real Time PCR Detection System with SYBR Green Master Mix (BioRad) and primers described in Table S1. The amplification parameters were set at 95° C. for 30 seconds, 58° C. for 30 seconds, and 72° C. for 30 seconds (40 cycles total). Gene expression values for each sample were normalized to the 18s RNA.

[4] = system: BRCA deficient breast tumors; assay: GSEA of RNAseq data of BRCA deficient breast tumors (GSE125206)
From the text: (§1) For RNA-Seq, sequencing Fastq files were uploaded to BaseSpace and processed with RNASeq Alignment App (Illumina) to obtain raw reads counts for each gene. For 3′RNA-Seq, read data was processed with the BlueBee Genomics Platform (BlueBee, San Mateo, CA). GenePattern (https://genepattern.broadinstitute.org/gp/pages/index.jsf) was used to collapse gene matrix files (CollapseDataset module) or to assess the statistical significance of differential gene expression (ComparativeMarkerSelection module for microarray data and DESeq2 module for RNA-seq data). […] For ATACSeq, FASTQ files from ATAC-seq reads were aligned to UCSC mm10 with Bowtie2 (bowtie2-very-sensitive-x mm10-1 FILE_merged_R1.fastq-2 FILE_merged_R2.fastq-X 1000-p 12 | samtools view-u-| samtools sort->FILE.bam). […] For motif enrichment analysis in the differential peaks between vehicle and Olaparib-treated cells, p-values were calculated using findMotifsGenome.pl with—size given,—len 6,8,10,12 and—mask program of HOMER v4.10.3. […] For ATACSeq, FASTQ files from ATAC-seq reads were aligned to UCSC mm10 with Bowtie2 (bowtie2-very-sensitive-x mm10-1 FILE_merged_R1.fastq-2 FILE_merged_R2.fastq-X 1000-p 12 | samtools view-u-I samtools sort->FILE.bam). […] For scRNA-seq, raw sequence reads were quality-checked using FastQC software. […]

[5] = system: human ovarian cancer PDXs; details: Niraparib vs vehicle, GSE163854
From the text: as §1

Cc1cccc(-c2nn3c(c2-c2ccnc4ccc(C(N)=O)cc24)CCC3)n1 [Galunisertib]
Olaparib-induced proliferation (EdU) [1]: completely abolished the stromal proliferation induced by Olaparib

Cc1[nH]nc(C(F)(F)F)c1Cc1sc2c(c1C(=O)N1C[C@](C)(O)CO1)c(=O)n(C)c(=O)n2C(C)C [AZD3965]
p62 downregulation induced by CM from PC3 cells ([2]; WPMY-1 cells, MCT1 inhibitor 10 μM, PC3 CM 48 h): impaired p62 downregulation in WPMY-1 cells treated with PC3 CM

NC(=O)c1ccc[n+]([C@@H]2O[C@H](CO)[C@@H](O)[C@H]2O)c1 [NR, nicotinamide riboside]
rescue of lactate-induced reduction in p62 ([2]; lactate-treated WPMY-1 cells, 48 h, NAD 150 μM, NR 200 μM): completely rescued the lactate-induced reduction in p62

CN(C)CC(=O)Nc1ccc2[nH]c(=O)c3ccccc3c2c1 [PJ34]
p62 expression (protein, SQSTM1 mRNA) ([2]; WPMY-1 cells, PJ34 24 h, Olaparib 48 h): reduced the expression of p62 in a dose-dependent manner

CNC(=O)c1ccccc1Oc1nc(Nc2cc(OC)c(OC)c(OC)c2)ncc1Br [SBI-0202965]
Olaparib-induced activation of stroma (qPCR of CAF marker ACTA2) [3]: reverted the Olaparib-induced activation of stroma in a dose dependent manner; also recorded: reverts the stroma activation induced by Olaparib

Cn1ncnc1[C@H]1c2n[nH]c(=O)c3cc(F)cc(c23)N[C@@H]1c1ccc(F)cc1 [Talazoparib]
GSEA inflammatory signaling signatures ([4]; Talazoparib vs saline): increased inflammatory related signatures | GSEA signatures of stromal activation ([4]; Talazoparib vs vehicle): significant enrichment of signatures of stromal activation; also recorded: showing stromal activation

NC(=O)c1cccc2cn(-c3ccc([C@@H]4CCCNC4)cc3)nc12 [Niraparib]
GSEA inflammatory signaling signatures [5]: increased inflammatory related signatures | GSEA signatures of stromal activation [5]: showing stromal activation

Reference: patent US20250073234A1, “COMBINATION THERAPIES INCLUDING PARP1 INHIBITORS” (Cornell University, priority 2022, published 2025)
